According to paper PMC4859512, “Polyamino-Isoprenic Derivatives Block Intrinsic Resistance of P. aeruginosa to Doxycycline and Chloramphenicol In Vitro” (PLoS ONE, 2016):
In brackets after ≈: the same amount, converted by molar mass. Residues, ends and D or L forms follow the SMILES beside them. *: point of attachment. βNA = c1ccc2cc(N*)ccc2c1

Legend:
[1] = test system: P. aeruginosa CMZ091 (Mex XY overproducer); experiment: Antibiotic susceptibility testing (broth micro-dilution MIC), strain CMZ091; type: cell-based, Pseudomonas aeruginosa; conditions: for MIC of Amikacin in the presence of the compound / MIC of Ceftazidime in the presence of the compound / MIC of Ciprofloxacin in the presence of the compound / MIC of Ticarcillin in the presence of the compound: CMZ091
Procedure: (§1) Experiments were performed on the BAC-SCREEN platform of the UMR-MD1, with a Freedom EVO 150 liquid handling system (Tecan, Lyon, France).
(§2) We concluded that compound 3 was the best compound and suitable for a more detailed study. The same experiment was performed using chloramphenicol (4 mg/L) in combination with 3 (10 μM final concentration). Amongst the 20 clinical isolates, the growth of 15 (75%) was impaired, while 5 (25%) were resistant (data not shown). These experiments were performed to study the effect of our compounds on the natural resistance of P. aeruginosa. In addition, we were wondering if compound 3 could also increase susceptibility to other antibiotic families including ß-Lactams, fluoroquinolones and aminoglycosides, that are representative of the main classes of anti-pseudomonal agents. Experiments were performed with the ß-lactams ceftazidime and ticarcillin and ciprofloxacin and amikacin. […] . […] To better characterize compound 3, we first searched for the minimum concentration of compound that allowed killing of bacteria by doxycycline, and PAßN was used as the reference molecule.

P. aeruginosa PA01 (wt) = experiment: Antibiotic susceptibility testing (broth micro-dilution MIC), strain PA01; type: cell-based, Pseudomonas aeruginosa; conditions: for MIC of Amikacin in the presence of the compound / MIC of Ceftazidime in the presence of the compound / MIC of Ciprofloxacin in the presence of the compound / MIC of Ticarcillin in the presence of the compound: PA01
Procedure: as §1
(§3) The same experiment was performed using chloramphenicol (4 mg/L) in combination with 3 (10 μM final concentration). […] These experiments were performed to study the effect of our compounds on the natural resistance of P. aeruginosa. […] Experiments were performed with the ß-lactams ceftazidime and ticarcillin and ciprofloxacin and amikacin.

P. aeruginosa PA01 [2] = experiment: Checkerboard assay with doxycycline; type: cell-based, Pseudomonas aeruginosa; conditions: PA01
Procedure: Serial two-fold dilutions of antimicrobial agents were mixed together in a microtiter plate. The range of concentration of each drug was twice the MIC, down to the eleventh serial two-fold dilutions below this amount. Doxycycline was serially diluted along the X-axis, and the polyamino-isoprenic compound or PAßN was diluted along the Y-axis as indicated. Each well was inoculated with a bacterial inoculum of 5 x 10^5 CFU/ml, and the plates were incubated at 37°C for 18 h under aerobic conditions. Each plate also contained a row and a column in which a serial dilution of polyamino-isoprenic compound or doxycycline, respectively, was present alone to determine the MIC. The FIC index was calculated as follows: FIC index = FIC A + FIC B, where FIC A is the MIC of drug A in the combination/MIC of drug A alone and FIC B is the MIC of drug B in the combination/MIC of drug B alone. The combination was considered synergistic when the FIC index is ≤0.5, and antagonistic when the FIC index is > 4 [26].

[3] = test system: P. aeruginosa PA01 ERY^R (Mex CD overproducer); experiment: microbe, parasite or virus in culture; type: cell-based, Pseudomonas aeruginosa; conditions: for MIC of Amikacin in the presence of the compound / MIC of Ceftazidime in the presence of the compound / MIC of Ciprofloxacin in the presence of the compound / MIC of Ticarcillin in the presence of the compound: PA01 ERY R
Procedure: as §1, §3

[4] = test system: P. aeruginosa PA0-7H (Mex EF overproducer); experiment: Antibiotic susceptibility testing (broth micro-dilution MIC), strain PA0-7H; type: cell-based, Pseudomonas aeruginosa; conditions: for MIC of Amikacin in the presence of the compound / MIC of Ceftazidime in the presence of the compound / MIC of Ciprofloxacin in the presence of the compound / MIC of Ticarcillin in the presence of the compound: PA0-7H
Procedure: as §1, §2

P. aeruginosa PA01 [5] = experiment: Comparison of efficiency between compounds and PAßN (compound gradient with 2 mg/L doxycycline); type: cell-based, Pseudomonas aeruginosa; conditions: PA01, doxycycline 2 mg/L, 18 h
Procedure: Serial dilutions of each compound (from 270 μM to 0.95 μM for PAßN and from 135 μM to 0.06 μM for 3) were prepared in microplates. Doxycycline (2 mg/L) was then added to each well before inoculation of bacteria (5x10^5 cfu/mL). Optical density (600 nm) was measured after 18 hours at 37°C. Only the relevant part of the graphs are shown. Experiments were performed in triplicate.
First, we performed a checkerboard assay to analyze the synergy between doxycycline and the polyamino-isoprenic compound and between doxycycline and PAβN. For both, compound 3 and PAβN we observed a synergistic inhibition of growth when combined with doxycycline with a FIC Index of 0.09 (S2 Table). […] PAßN is generally used at a concentration greater than 10 μM to inhibit the resistance of P. aeruginosa with respect to various antibiotics, and, to our knowledge, no data have been reported in the literature on its use in combination with doxycycline. The percentage of growth inhibition was monitored as a function of compound concentration, and the results are presented in Fig 3.

[6] = test system: P. aeruginosa PT629 (Mex AB overproducer); experiment: Antibiotic susceptibility testing (broth micro-dilution MIC), strain PT629; type: cell-based, Pseudomonas aeruginosa; conditions: for MIC of Amikacin in the presence of the compound / MIC of Ceftazidime in the presence of the compound / MIC of Ciprofloxacin in the presence of the compound / MIC of Ticarcillin in the presence of the compound: PT629
Procedure: as §1, §2

[7] = test system: P. aeruginosa FB1 (Mex B deleted); experiment: Antibiotic susceptibility testing (broth micro-dilution MIC), strain FB1; type: cell-based; conditions: Pseudomonas aeruginosa, read-out: Minimal Inhibitory Concentration
Procedure: as §1

[8] = doxycycline MIC in the combination 0.125 µg/ml
[9] = doxycycline MIC in the combination 0.25 µg/ml
[10] = doxycycline MIC in the combination 0.5 µg/ml
[11] = doxycycline MIC in the combination 1 µg/ml
[12] = doxycycline MIC in the combination 2 µg/ml
[13] = doxycycline MIC in the combination 4 µg/ml
[14] = doxycycline MIC in the combination 8 µg/ml
[15] = doxycycline MIC in the combination 16 µg/ml
[16] = Pseudomonas aeruginosa, read-out: Minimal Inhibitory Concentration

Compound: NC(N)=NCCC[C@H](NC(=O)[C@@H](N)Cc1ccccc1)C(=O)Nc1ccc2ccccc2c1 [PAßN, Phenylalanine-Arginine Beta-Naphthylamide, reference compound] (H-Phe-Arg-βNA)
- MIC of Amikacin in the presence of the compound ([1]; compound 10µM): 64 µg/mL
- MIC of Ceftazidime in the presence of the compound ([1]; compound 10µM): 2 µg/mL
- MIC of Ciprofloxacin in the presence of the compound ([1]; compound 10µM): 0.5 µg/mL
- MIC of Ticarcillin in the presence of the compound ([1]; compound 10µM): 16 to 32 µg/mL
- MIC of Amikacin in the presence of the compound ([1]; compound 30µM): 32 to 64 µg/mL
- MIC of Ceftazidime in the presence of the compound ([1]; compound 30µM): 2 µg/mL
- MIC of Ciprofloxacin in the presence of the compound ([1]; compound 30µM): 0.25 µg/mL
- MIC of Ticarcillin in the presence of the compound ([1]; compound 30µM): 16 to 32 µg/mL
- MIC of Amikacin in the presence of the compound (P. aeruginosa PA01 (wt); compound 10µM): 16 µg/mL
- MIC of Ceftazidime in the presence of the compound (P. aeruginosa PA01 (wt); compound 10µM): 2 µg/mL
- MIC of Ciprofloxacin in the presence of the compound (P. aeruginosa PA01 (wt); compound 10µM): 0.125 µg/mL
- MIC of Ticarcillin in the presence of the compound (P. aeruginosa PA01 (wt); compound 10µM): 32 µg/mL
- MIC of Amikacin in the presence of the compound (P. aeruginosa PA01 (wt); compound 30µM): 16 µg/mL
- MIC of Ceftazidime in the presence of the compound (P. aeruginosa PA01 (wt); compound 30µM): 1 µg/mL
- MIC of Ciprofloxacin in the presence of the compound (P. aeruginosa PA01 (wt); compound 30µM): ≤ 0.06 µg/mL
- MIC of Ticarcillin in the presence of the compound (P. aeruginosa PA01 (wt); compound 30µM): 32 µg/mL
- Concentration of compound associated (P. aeruginosa PA01 [2]; [8]): 128 µM
- Effect (P. aeruginosa PA01 [2]; [8]): Synergistic (synergistic when the FIC index is ≤0.5)
- FIC index (P. aeruginosa PA01 [2]; [8]): 0.13
- Concentration of compound associated (P. aeruginosa PA01 [2]; [9]): 32 µM
- Effect (P. aeruginosa PA01 [2]; [9]): Synergistic (synergistic when the FIC index is ≤0.5)
- FIC index (P. aeruginosa PA01 [2]; [9]): 0.04
- Concentration of compound associated (P. aeruginosa PA01 [2]; [10]): 32 µM
- Effect (P. aeruginosa PA01 [2]; [10]): Synergistic (synergistic when the FIC index is ≤0.5)
- FIC index (P. aeruginosa PA01 [2]; [10]): 0.05
- Concentration of compound associated (P. aeruginosa PA01 [2]; [11]): 32 µM
- Effect (P. aeruginosa PA01 [2]; [11]): Synergistic (synergistic when the FIC index is ≤0.5)
- FIC index (P. aeruginosa PA01 [2]; [11]): 0.06
- Concentration of compound associated (P. aeruginosa PA01 [2]; [12]): 32 µM
- Effect (P. aeruginosa PA01 [2]; [12]): Synergistic (synergistic when the FIC index is ≤0.5)
- FIC index (P. aeruginosa PA01 [2]; [12]): 0.09
- Concentration of compound associated (P. aeruginosa PA01 [2]; [13]): 8 µM
- Effect (P. aeruginosa PA01 [2]; [13]): Synergistic (synergistic when the FIC index is ≤0.5)
- FIC index (P. aeruginosa PA01 [2]; [13]): 0.13
- Concentration of compound associated (P. aeruginosa PA01 [2]; [14]): 4 µM
- Effect (P. aeruginosa PA01 [2]; [14]): Synergistic (synergistic when the FIC index is ≤0.5)
- Concentration of compound associated (P. aeruginosa PA01 [2]; [15]): 2 µM
- Effect (P. aeruginosa PA01 [2]; [15]): Synergistic (synergistic when the FIC index is ≤0.5)
- FIC index (P. aeruginosa PA01 [2]; [15]): 0.5
- FIC index (P. aeruginosa PA01 [2]; combination with doxycycline): 0.09
- MIC of Amikacin in the presence of the compound ([3]; compound 10µM): 2 µg/mL
- MIC of Ceftazidime in the presence of the compound ([3]; compound 10µM): 2 µg/mL
- MIC of Ciprofloxacin in the presence of the compound ([3]; compound 10µM): 0.125 µg/mL
- MIC of Ticarcillin in the presence of the compound ([3]; compound 10µM): 32 µg/mL
- MIC of Amikacin in the presence of the compound ([3]; compound 30µM): 2 µg/mL
- MIC of Ceftazidime in the presence of the compound ([3]; compound 30µM): 2 µg/mL
- MIC of Ciprofloxacin in the presence of the compound ([3]; compound 30µM): ≤ 0.06 µg/mL
- MIC of Ticarcillin in the presence of the compound ([3]; compound 30µM): 32 µg/mL
- MIC of Amikacin in the presence of the compound ([4]; compound 10µM): 4 µg/mL
- MIC of Ceftazidime in the presence of the compound ([4]; compound 10µM): 1 µg/mL
- MIC of Ciprofloxacin in the presence of the compound ([4]; compound 10µM): 4 µg/mL
- MIC of Ticarcillin in the presence of the compound ([4]; compound 10µM): 8 µg/mL
- MIC of Amikacin in the presence of the compound ([4]; compound 30µM): 4 µg/mL
- MIC of Ceftazidime in the presence of the compound ([4]; compound 30µM): 1 µg/mL
- MIC of Ciprofloxacin in the presence of the compound ([4]; compound 30µM): 4 µg/mL
- MIC of Ticarcillin in the presence of the compound ([4]; compound 30µM): 8 µg/mL
- concentration needed to inhibit growth in the presence of doxycycline (P. aeruginosa PA01 [5]): ≥ 15.6 mg/L
- concentration needed to inhibit growth in the presence of doxycycline (P. aeruginosa PA01 [5]; graphically determined on Fig 3): ≥ 30 µM
- MIC of Amikacin in the presence of the compound ([6]; compound 10µM): 4 µg/mL
- MIC of Ceftazidime in the presence of the compound ([6]; compound 10µM): 8 µg/mL
- MIC of Ciprofloxacin in the presence of the compound ([6]; compound 10µM): 0.5 µg/mL
- MIC of Ticarcillin in the presence of the compound ([6]; compound 10µM): > 64 µg/mL
- MIC of Amikacin in the presence of the compound ([6]; compound 30µM): 4 to 8 µg/mL
- MIC of Ceftazidime in the presence of the compound ([6]; compound 30µM): 2 to 4 µg/mL
- MIC of Ciprofloxacin in the presence of the compound ([6]; compound 30µM): 0.5 µg/mL
- MIC of Ticarcillin in the presence of the compound ([6]; compound 30µM): > 64 µg/mL

Compound: O=C(N[C@H](CO)[C@H](O)c1ccc([N+](=O)[O-])cc1)C(Cl)Cl [chloramphenicol]
- MIC [1, 16]: 256 µg/mL
- MIC (P. aeruginosa PA01 (wt); [16]): 256 µg/mL
- MIC [3, 16]: 256 µg/mL
- MIC [4, 16]: > 1020 µg/mL
- MIC [6, 16]: 512 µg/mL
- MIC [7]: 8 µg/mL (≈ 24.8 µM)
